In patent US20240409536A1, “COMPOUNDS AND METHODS FOR MODULATING SPLICING” (REMIX THERAPEUTICS INC., priority 2021, published 2024):
pIC50: −log10 of the molar value.

Key:
MYB mRNA = assay: Splicing RT-qPCR assay, MYB canonical (CJ) and alternative (AJ) junction mRNA; format: cell-based; settings: Homo sapiens, A673 or K562 cells, 24 hours; for pIC50: decrease in canonical junction mRNA; for AC50: increase in alternative junction mRNA
Procedure, shortened: (§1)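 A673 or K562 cells were treated 24 h at 37 °C with compounds in an 11-point 3-fold dilution series (top final 10 uM, DMSO ≤0.25%). Lysates were analysed by one-step RT-qPCR for canonical (CJ) and alternative-exon (AJ) junction isoforms, normalized to GAPDH, GUSB or PPIA.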

HTT mRNA [1] = assay: Splicing RT-qPCR assay, HTT canonical (CJ) and alternative (AJ) junction mRNA; format: cell-based; settings: Homo sapiens, A673 or K562 cells, 24 hours; for pIC50: decrease in canonical junction mRNA; for AC50: increase in alternative junction mRNA
Procedure, shortened: as §1

HTT mRNA [2] = assay: Gene panel canonical junction qPCR assay, HTT CJ mRNA decrease; format: cell-based, human; settings: Homo sapiens, canonical junction qPCR, read-out: HTT IC50 (decrease in CJ mRNA levels)
Procedure, shortened: (§2)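 A673 or K562 cells were treated with compound, and lysates underwent cDNA synthesis and qPCR with a CY5 5′-nuclease probe or primer spanning the canonical exon junction. ΔCt versus GAPDH, GUSB or PPIA was normalized to DMSO (2^(−ΔΔCt)), converted to percentage response and fitted four-parameter logistic for IC50.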

SMN2 mRNA = assay: Gene panel canonical junction qPCR assay, SMN2 CJ mRNA decrease; format: cell-based, human; settings: Homo sapiens, canonical junction qPCR, read-out: SMN2 IC50 (decrease in CJ mRNA levels)
Procedure, shortened: as §2

Row | Compound | pIC50 (MYB mRNA) | pIC50 (HTT mRNA [1]) | pIC50 (HTT mRNA [2]) | pIC50 (SMN2 mRNA) | AC50 (MYB mRNA) [µM] | AC50 (HTT mRNA [1]) [µM]
1 | Cc1cn2cc(NC(=O)c3ccc(N4C[C@H]5CC[C@@H](C4)N5)c4ccnnc34)cc(F)c2n1 [Compound 108] | 6.00 to 7.00 | 5.00 to 6.00 | 5.00 to 6.00 | > 7.00 | 0.1 to 1 | 1 to 10
2 | Cc1cn2nc(NC(=O)c3ccc(N4CCNCC4)c4ccnnc34)cc2c(C)n1 [Compound 123] | 5.00 to 6.00 | 5.00 to 6.00 | 5.00 to 6.00 | 5.00 to 6.00 | 1 to 10 | 1 to 10
3 | O=C(Nc1cn[nH]c1)c1ccc(N2CCNCC2)c2ccnnc12 [Compound 126] | < 5.00 | < 5.00 | < 5.00 | < 5.00 | > 10 | > 10
4 | Cc1cn2cc(NC(=O)c3ccc(N4CCC(N5CCCC5)C4)c4ccnnc34)cc(F)c2n1 (stereo not drawn) [Compound 133] | 5.00 to 6.00 | 5.00 to 6.00 | 5.00 to 6.00 | > 7.00 | 0.1 to 1 | 1 to 10
5 | Cc1cn2cc(NC(=O)c3ccc(N4CCC(NC(C)(C)C)CC4)c4ccnnc34)cc(F)c2n1 [Compound 138] | 6.00 to 7.00 | 5.00 to 6.00 | 5.00 to 6.00 | > 7.00 | 0.1 to 1 | 1 to 10
6 | Cc1cn2cc(NC(=O)c3ccc(C4CCN(C)CC4)c4ccnnc34)cc(F)c2n1 [Compound 140] | 6.00 to 7.00 | 5.00 to 6.00 | 5.00 to 6.00 | > 7.00 | 0.1 to 1 | 1 to 10
7 | CCN1CCC(c2ccc(C(=O)Nc3cc(F)c4nc(C)cn4c3)c3nnccc23)CC1 [Compound 141] | 6.00 to 7.00 | 5.00 to 6.00 | 5.00 to 6.00 | > 7.00 | 0.1 to 1 | 1 to 10
8 | Cc1cn2cc(NC(=O)c3ccc(N4CCN(C)[C@@H](C)C4)c4ccnnc34)cc(F)c2n1 [Compound 150] | 6.00 to 7.00 | 5.00 to 6.00 | 5.00 to 6.00 | > 7.00 | 0.1 to 1 | 1 to 10
9 | CC[C@H]1CN(c2ccc(C(=O)Nc3cc(F)c4nc(C)cn4c3)c3nnccc23)CCN1 [Compound 152] | 6.00 to 7.00 | 5.00 to 6.00 | 5.00 to 6.00 | > 7.00 | 0.1 to 1 | 1 to 10
10 | Cc1cn2cc(NC(=O)c3ccc(N4CCN5CCC[C@H]5C4)c4ccnnc34)cc(F)c2n1 [Compound 154] | 6.00 to 7.00 | 5.00 to 6.00 | 5.00 to 6.00 | > 7.00 | 0.1 to 1 | 1 to 10
11 | Cc1cn2cc(NC(=O)c3ccc(N4C[C@H]5C[C@@H]4C5N(C)C)c4ccnnc34)cc(F)c2n1 (stereo partly drawn) [Compound 155] | 5.00 to 6.00 | < 5.00 | < 5.00 | 6.00 to 7.00 | 1 to 10 | > 10
12 | Cc1cn2cc(NC(=O)c3ccc(N(C)[C@@H]4C[C@H]5CC[C@@H](C4)N5)c4ccnnc34)cc(F)c2n1 [Compound 156] | 5.00 to 6.00 | < 5.00 | < 5.00 | 6.00 to 7.00 | 1 to 10 | > 10
13 | CC(=O)c1cc(NC(=O)c2ccc(N3CCNCC3)c3ccnnc23)cn2cc(C)nc12 [Compound 163, N-{8-acetyl-2-methylimidazo[1,2-a]pyridin-6-yl}-5-(piperazin-1-yl)cinnoline-8-carboxamide] | 5.00 to 6.00 | < 5.00 | < 5.00 | > 7.00 | 1 to 10 | > 10
14 | Cc1cn2cc(NC(=O)c3ccc(N4CCNCC4)c4ccnnc34)nc(C)c2n1 [Compound 164, N-{2,8-dimethylimidazo[1,2-a]pyrazin-6-yl}-5-(piperazin-1-yl)cinnoline-8-carboxamide 2,2,2-trifluoroacetate] | 6.00 to 7.00 | < 5.00 | < 5.00 | > 7.00 | 0.1 to 1 | > 10

The next lines start with results.

Row | pIC50 (MYB mRNA) | pIC50 (HTT mRNA [1]) | pIC50 (HTT mRNA [2]) | pIC50 (SMN2 mRNA) | Compound | AC50 (MYB mRNA) [µM] | AC50 (HTT mRNA [1]) [µM]
15 | 6.00 to 7.00 | < 5.00 | < 5.00 | > 7.00 | CN[C@@H]1CCN(c2ccc(C(=O)Nc3cc(F)c4nc(C)cn4c3)c3nccnc23)C1 (single isomer, unassigned) [Compound 193, N-{8-fluoro-2-methylimidazo[1,2-a]pyridin-6-yl}-8-[3-(methylamino)pyrrolidin-1-yl]quinoxaline-5-carboxamide] | 0.1 to 1 | > 10
16 | > 7.00 | 5.00 to 6.00 | 5.00 to 6.00 | > 7.00 | CN[C@H]1CCN(c2ccc(C(=O)Nc3cc(F)c4nc(C)cn4c3)c3nccnc23)C1 (single isomer, unassigned) [Compound 194, N-{8-fluoro-2-methylimidazo[1,2-a]pyridin-6-yl}-8-[3-(methylamino)pyrrolidin-1-yl]quinoxaline-5-carboxamide] | 0.1 to 1 | 1 to 10
17 | 6.00 to 7.00 | 6.00 to 7.00 | 6.00 to 7.00 | 6.00 to 7.00 | Cc1cn2nc(NC(=O)c3ccc(N4CCNCC4)c4ccnnc34)cc(C)c2n1 [Compound 100] | 0.1 to 1 | 0.1 to 1
18 | 6.00 to 7.00 | 5.00 to 6.00 | 5.00 to 6.00 | > 7.00 | Cc1cn2cc(NC(=O)c3ccc(N4CCNC5(CC5)C4)c4ccnnc34)cc(F)c2n1 [Compound 105] | 0.1 to 1 | 1 to 10
19 | 6.00 to 7.00 | 5.00 to 6.00 | 5.00 to 6.00 | > 7.00 | Cc1cn2cc(NC(=O)c3ccc(N4CCNCC4)c4ccnnc34)cc(C)c2n1 [Compound 125] | 0.1 to 1 | 1 to 10
20 | 6.00 to 7.00 | 5.00 to 6.00 | 5.00 to 6.00 | > 7.00 | Cc1cn2cc(NC(=O)c3ccc(N4CCN(C)CC4)c4ccnnc34)cc(F)c2n1 [Compound 127] | 1 to 10 | 1 to 10
21 | > 7.00 | 6.00 to 7.00 | 6.00 to 7.00 | > 7.00 | Cc1cn2cc(NC(=O)c3ccc(N4CCNC(C)C4)c4ccnnc34)cc(F)c2n1 (stereo not drawn) [Compound 128] | < 0.1 | 0.1 to 1
22 | > 7.00 | 5.00 to 6.00 | 5.00 to 6.00 | > 7.00 | CCC1CN(c2ccc(C(=O)Nc3cc(F)c4nc(C)cn4c3)c3nnccc23)CCN1 (stereo not drawn) [Compound 130] | 0.1 to 1 | 1 to 10
23 | 6.00 to 7.00 | 5.00 to 6.00 | 5.00 to 6.00 | > 7.00 | Cc1cn2cc(NC(=O)c3ccc(N4CC5(CNC5)C4)c4ccnnc34)cc(F)c2n1 [Compound 131] | 0.1 to 1 | 1 to 10
24 | 6.00 to 7.00 | 5.00 to 6.00 | 5.00 to 6.00 | > 7.00 | Cc1cn2cc(NC(=O)c3ccc(N4CCC(N(C)C)C4)c4ccnnc34)cc(F)c2n1 (stereo not drawn) [Compound 134] | 0.1 to 1 | 1 to 10
25 | > 7.00 | 6.00 to 7.00 | 6.00 to 7.00 | > 7.00 | Cc1cn2cc(NC(=O)c3ccc(N4CCC(N(C)C)CC4)c4ccnnc34)cc(F)c2n1 [Compound 137] | < 0.1 | 0.1 to 1
26 | > 7.00 | 6.00 to 7.00 | 6.00 to 7.00 | > 7.00 | Cc1cn2cc(NC(=O)c3ccc(N4CCN[C@H](C)C4)c4ccnnc34)cc(F)c2n1 [Compound 146] | < 0.1 | 0.1 to 1
27 | > 7.00 | 5.00 to 6.00 | 5.00 to 6.00 | > 7.00 | Cc1cn2cc(NC(=O)c3ccc(N4CCN(C)[C@H](C)C4)c4ccnnc34)cc(F)c2n1 [Compound 149] | 0.1 to 1 | 1 to 10
28 | > 7.00 | 5.00 to 6.00 | 5.00 to 6.00 | > 7.00 | CC[C@@H]1CN(c2ccc(C(=O)Nc3cc(F)c4nc(C)cn4c3)c3nnccc23)CCN1 [Compound 151] | 0.1 to 1 | 1 to 10
29 | > 7.00 | 6.00 to 7.00 | 6.00 to 7.00 | > 7.00 | Cc1cn2cc(NC(=O)c3ccc(N4CCN5CCC[C@@H]5C4)c4ccnnc34)cc(F)c2n1 [Compound 153] | < 0.1 | 0.1 to 1
30 | > 7.00 | 6.00 to 7.00 | 6.00 to 7.00 | > 7.00 | Cc1cc2c(N3CCNCC3)ccc(C(=O)Nc3cc(F)c4nc(C)cn4c3)c2nn1 [Compound 159] | < 0.1 | 0.1 to 1
31 | > 7.00 | 5.00 to 6.00 | 5.00 to 6.00 | > 7.00 | Cc1cn2cc(NC(=O)c3ccc(N4C[C@@H](C)N[C@@H](C)C4)c4ccnnc34)cc(F)c2n1 [Compound 161, 5-(3,5-dimethylpiperazin-1-yl)-N-{8-fluoro-2-methylimidazo[1,2-a]pyridin-6-yl}cinnoline-8-carboxamide 2,2,2-trifluoroacetate] | < 0.1 | 1 to 10
32 | > 7.00 | 5.00 to 6.00 | 5.00 to 6.00 | > 7.00 | Cc1ccc2c(N3CCNCC3)ccc(C(=O)Nc3cc(F)c4nc(C)cn4c3)c2n1 [Compound 162, N-{8-fluoro-2-methylimidazo[1,2-a]pyridin-6-yl}-2-methyl-5-(piperazin-1-yl)quinoline-8-carboxam-ide, trifluoroacetic acid] | < 0.1 | 1 to 10
